Each structure is given as a SMILES string. Values after ≈ are worked out from the molar mass of the structure shown. Active and inactive are the calls of the source. The calls are words filed in the database; no cut-off is given here. Peptide text beside a SMILES is read from it.

By IC50 is commonly meant the concentration that inhibits the measured activity by half. A high value points to lower potency. For orientation: inhibition means how much of the control response was suppressed.

One assay concerns Bel-7402. Nature of the assay: Cytotoxicity against human Bel-7402. It is filed as functional. As to conditions: read-out: ED50 (the source's name).
Another assay relates to Cryptococcus neoformans. Nature of the assay: Antifungal activity against Cryptococcus neoformans. It is filed as functional, organism-based.
In assay [1] the test system is Plasmodium falciparum. Nature of the assay: Antimalarial activity against Plasmodium falciparum D6. It is filed as functional, organism-based.
The subject of assay [2] is Human immunodeficiency virus 1. The assay can be described thus: Antiviral activity against HIV1 in human PBM cells. It is filed as functional, organism-based.
The subject of assay [3] is Mycobacterium tuberculosis. The assay can be described thus: Antimycobacterial activity against Mycobacterium tuberculosis at 128 ug/mL. It is filed as functional.
In a further assay the test system is Leishmania donovani. Nature of the assay: Antileishmanial activity against Leishmania donovani. It is filed as functional, organism-based.
In another assay the test system is Candida albicans. The assay can be described thus: Antifungal activity against Candida albicans. It is filed as functional, organism-based.
For a further assay, the system named is Staphylococcus aureus. The assay can be described thus: Antibacterial activity against Staphylococcus aureus. It is filed as functional, organism-based.
The subject of another assay is Pseudomonas aeruginosa. The assay can be described thus: Antibacterial activity against Pseudomonas aeruginosa. It is filed as functional, organism-based.
Assay [4] has as its system Mycobacterium intracellulare. The assay can be described thus: Antibacterial activity against Mycobacterium intracellular. It is filed as functional, organism-based.
The test system of the next assay is Aspergillus fumigatus. Nature of the assay: Antifungal activity against Aspergillus fumigatus. It is filed as functional, organism-based.
Assay [5] concerns Plasmodium falciparum. The assay can be described thus: Antimalarial activity against Plasmodium falciparum W2. It is filed as functional, organism-based.
For assay [6], the system named is Mycobacterium tuberculosis. Nature of the assay: Antimycobacterial activity against Mycobacterium tuberculosis. It is filed as functional, organism-based.
The subject of the next assay is Microglia. The assay can be described thus: Antiinflammatory activity against rat neonatal microglia. It is filed as functional, cell-based.

Consider `CC(C)C[C@@H]1NC(=O)[C@H]([C@@H](C)O)NC(=O)[C@@H]2CCCN2C(=O)CNC(=O)[C@H](Cc2ccccc2)NC(=O)[C@@H]2CCCN2C(=O)[C@H](Cc2c[nH]c3ccccc23)NC1=O` [PHAKELLISTATIN 13] (cyclo(FGPTLWP)), for which the EC50 in the assay on Bel-7402 is under 0.01 µg/mL.

Turning to `Nc1ncc(C2=CCNC(=O)c3[nH]c(Br)c(Br)c32)[nH]1` [STEVENSINE], the outcome (with Cryptococcus neoformans; in [2]; in the assay with Leishmania donovani) was inactive. In the assay with Plasmodium falciparum [1], this compound displayed an IC50 of 1.8 µg/mL (≈ 4.65 µM). The same compound came in with an inhibition at 128 µg/mL in assay [3] of 95%.

In the assay on Cryptococcus neoformans, `Nc1nc([C@H]2[C@H](CNC(=O)c3cc(Br)c[nH]3)[C@@H](CNC(=O)c3cc(Br)c[nH]3)[C@@H]2c2c[nH]c(N)n2)c[nH]1` [SCEPTRIN] had an IC50 of 3.5 µg/mL (≈ 5.64 µM). Moreover, the outcome (in assay [2]; in assay [3]; in the assay on Leishmania donovani) was inactive.

Take `Nc1ncc(/C=C/CNC(=O)c2cc(Br)c(Br)[nH]2)[nH]1` [OROIDIN]: the outcome (in the assay on Cryptococcus neoformans; in assay [2]; with Leishmania donovani) was inactive. In the assay with Plasmodium falciparum [1], this compound displayed an IC50 of 1.2 µg/mL (≈ 3.08 µM). For the same compound, in [3], the inhibition at 128 µg/mL turned out to be 71%.

With `CC[C@H](C)[C@@H]1NC(=O)[C@@H]2CCCN2C(=O)[C@H](Cc2ccc(O)cc2)NC(=O)[C@@H]2CCCN2C(=O)[C@H](CC(C)C)NC(=O)[C@@H]2CCCN2C(=O)[C@H](Cc2ccccc2)NC1=O` (cyclo(FPLPYPI)), the outcome (with Candida albicans; in the assay on Cryptococcus neoformans; in the assay on Staphylococcus aureus; in the assay with Pseudomonas aeruginosa; in assay [4]; in the assay on Aspergillus fumigatus) was inactive. The outcome (with Plasmodium falciparum [1]; in the assay on Plasmodium falciparum [5]; in assay [6]; in the assay on Microglia; in assay [2]) was inactive.

Turning to `CC[C@H](C)[C@@H]1NC(=O)[C@@H]2CCCN2C(=O)[C@H](Cc2ccccc2)NC(=O)[C@@H]2CCCN2C(=O)[C@@H]2CCCN2C(=O)[C@H](Cc2ccc(O)cc2)NC(=O)[C@@H]2CCCN2C1=O` (cyclo(FPIPYPP)), the outcome (in the assay on Candida albicans; in the assay with Cryptococcus neoformans; with Staphylococcus aureus; in the assay on Pseudomonas aeruginosa; in assay [4]; with Aspergillus fumigatus) was inactive. Also, the result (in the assay on Plasmodium falciparum [1]; with Plasmodium falciparum [5]; in assay [6]; in the assay with Microglia; in assay [2]) was inactive.
